Experimental data as given in patent US20080242681A1, “N-4-(6-(Hetero)Aryl-Pyrimidin-4-Ylaminophenyl)-Benzenesulfonamides as Kinase Inhibitors” (Altana Pharma AG, priority 2004, published 2008).
Structures can show the parent of a compound that is named as a salt. One block for each compound: values may come before it.

Assays:
Format in all cases: biochemical
PKCθ = target: T1, PKCθ (Homo sapiens, UniProt Q04759); test: Protein Kinase C θ assay (SPA); details: human recombinant PKCθ from Sf21 insect cells, read-out: IC50, inhibition of PKC θ
T1 construct: made in house; host or cells: Sf21 insect cells
Description: (§1) The compounds of formula 1 are tested for their activity on different protein kinases and PKC isoforms using a scintillation proximity assay (SPA, Amersham International plc). ^33P-labeled peptides are captured onto streptavidin coated yttrium silicate SPA beads. β-particles, emitted from the captured ^33P-labeled substrate in close proximity to the bead are able to excite the scintillant, resulting in the generation of quantifiable light. The assay is performed in a 96-well polystyrene microtiterplate (1450-514, Isoplates, Wallac, Turku, Finland). The reaction mixture (50 μl) contains 10 μl of the test compound together with 10 μl of the relevant kinase, diluted in the relevant dilution buffer, 5 μl of 10 μM phorbol myristate acetate (PMA) in H2O, 5 μl of 1.6 mM phosphatidylserine (Sigma-Aldrich Chemie GmbH, Stein-heim, Germany) in 20 mM Tris/HCL buffer pH 7.4, 5 μl of 0.3% BSA in H2O, 5 μl of 30 μM relevant substrate and 10 μl of 5 μM ATP and 0.1 μCi of ^33P-ATP (Amersham, Freiburg, Germany) in 200 mM Tris/HCL pH 7.5 and 200 mM MgCl2. Incubation is performed for 40 min at room temperature (RT) without shaking. Reaction is stopped by adding 150 μl of cold stop solution containing 10 mM ATP, 5 mM EGTA pH 7.5, 0.1% Triton X-100 and 0.2 mg streptavidin coated yttrium silicate SPA beads (Amersham, RPNQ 0012). The sealed plate is incubated for 60 min at RT. Thereafter the MTP is counted in a Microbeta Jet (Wallac). IC50 measurement is performed on a routine basis by incubation a serial dilution of inhibitor at concentrations ranging between 0.01 and 100 μM according to the method described above. Background values are the signals of the reaction mixture without addition of the relevant kinase and are subtracted from all values. 100% values are the signals of the reaction mixture without addition of inhibitors.
(§2) Dependent on the efficacy of the inhibitors In the various test systems, corresponding IC50 values are calculated from concentration-inhibition curves by nonlinear regression analysis using the program GraphPad Prism (GraphPad Software Inc., San Diego, Calif.).
(§3) Human recombinant nickel bead purified PKCθ from Sf21 insect cells is used under the assay conditions as described above (Section A.1). The enzyme is diluted in PKC dilution buffer containing 1 mM Hepes pH 7.4, 0.5 mM DTT and 0.001% Triton X-100. The kinase reaction is performed with the biotinylated PKCθ pseudosubstrate solved in H2O. The examples 8, 22, 46, 115, 118 and 161 inhibit PKC 9 in this assay with an IC50<1 μM.

PKCα = target: T2, PKCα (Homo sapiens, UniProt P17252); test: Protein Kinase Cα assay (SPA); details: human recombinant PKCα, biotinylated PKCα pseudosubstrate, 0.5 mM CaCl2, read-out: IC50, inhibition of PKCα
T2 construct: purchased Panvera (Invitrogen GmbH, Karlsruhe, Germany)
Description: as §1, §2
(§4) Human recombinant PKCα was obtained from Panvera (Invitrogen GmbH, Karlsruhe, Germany) and is used under the assay conditions as described above (Section A.1). The enzyme is diluted in PKC dilution buffer containing 1 mM Hepes pH 7.4, 0.5 mM DTT and 0.001% Triton X-100. The assay additionally contains 0.5 mM CaCl2. The kinase reaction is performed with the biotinylated PKCα pseudosubstrate solved in H2O.

PKCβ1 = target: T3, PKCβ1 (Homo sapiens, UniProt P05771); test: Protein Kinase Cβ1 assay (SPA); details: human recombinant PKCβ1, SPA, biotinylated PKCα pseudosubstrate, 0.5 mM CaCl2; read-out: IC50, inhibition of PKC β1
T3 construct: purchased Panvera
Description: as §1, §2
as §4, with “recombinant PKCβ1” for “recombinant PKCα”, “Panvera” for “Panvera (Invitrogen GmbH, Karlsruhe, Germany)”, “H2O. The examples 29, 45, 52, 128 and 139 inhibit PKC β1 in this assay with an IC50 between 2 and 40 μM.” for “H2O.”

PKCε = target: T4, PKCε (Homo sapiens, UniProt Q02156); test: Protein Kinase C ε assay (SPA); details: human recombinant PKCε, PKCη pseudosubstrate, read-out: IC50, inhibition of PKC ε
T4 construct: purchased Panvera
T4 sequence (Q02156 1-737): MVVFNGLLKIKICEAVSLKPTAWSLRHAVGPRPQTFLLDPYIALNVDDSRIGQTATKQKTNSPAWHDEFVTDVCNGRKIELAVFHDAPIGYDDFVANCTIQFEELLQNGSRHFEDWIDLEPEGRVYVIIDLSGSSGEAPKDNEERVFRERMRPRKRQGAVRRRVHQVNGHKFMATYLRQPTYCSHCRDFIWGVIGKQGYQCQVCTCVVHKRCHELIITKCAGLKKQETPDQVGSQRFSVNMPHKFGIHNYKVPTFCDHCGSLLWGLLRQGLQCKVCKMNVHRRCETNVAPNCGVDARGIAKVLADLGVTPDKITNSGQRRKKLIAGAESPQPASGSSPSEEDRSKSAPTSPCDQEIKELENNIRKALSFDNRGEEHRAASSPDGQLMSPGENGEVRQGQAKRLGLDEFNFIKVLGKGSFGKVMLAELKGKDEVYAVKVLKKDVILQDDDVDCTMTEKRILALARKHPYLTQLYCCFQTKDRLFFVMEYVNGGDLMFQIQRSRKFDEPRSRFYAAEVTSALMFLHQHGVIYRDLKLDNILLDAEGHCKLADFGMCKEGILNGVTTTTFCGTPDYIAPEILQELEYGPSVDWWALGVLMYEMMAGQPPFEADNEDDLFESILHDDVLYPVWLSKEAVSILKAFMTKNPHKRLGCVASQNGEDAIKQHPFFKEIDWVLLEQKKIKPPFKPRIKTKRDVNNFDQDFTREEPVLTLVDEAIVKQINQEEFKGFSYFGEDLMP
Description: as §1, §2
Human recombinant PKCε was obtained from Panvera and is used under the assay conditions as described above (Section A.1). The enzyme is diluted in PKC dilution buffer containing 1 mM Hepes pH 7.4, 0.5 mM DTT and 0.001% Triton X-100. The kinase reaction is performed with the biotinylated PKCη pseudosubstrate solved in H2O.

PKCη = target: T5, PKCη (Homo sapiens, UniProt P24723); test: Protein Kinase C η assay (SPA); details: human recombinant PKCη from Sf21 insect cells, read-out: IC50, inhibition of PKC η
T5 construct: made in house; host or cells: Sf21 insect cells
Description: as §1, §2
as §3, with “PKCη” for “PKCθ”, “52, 55,” for “8, 22, 46, 115,”, “135” for “161”, “η” for “9”, “IC50 between 6 and 50” for “IC50<1”

T5 sequence (P24723 whole entry): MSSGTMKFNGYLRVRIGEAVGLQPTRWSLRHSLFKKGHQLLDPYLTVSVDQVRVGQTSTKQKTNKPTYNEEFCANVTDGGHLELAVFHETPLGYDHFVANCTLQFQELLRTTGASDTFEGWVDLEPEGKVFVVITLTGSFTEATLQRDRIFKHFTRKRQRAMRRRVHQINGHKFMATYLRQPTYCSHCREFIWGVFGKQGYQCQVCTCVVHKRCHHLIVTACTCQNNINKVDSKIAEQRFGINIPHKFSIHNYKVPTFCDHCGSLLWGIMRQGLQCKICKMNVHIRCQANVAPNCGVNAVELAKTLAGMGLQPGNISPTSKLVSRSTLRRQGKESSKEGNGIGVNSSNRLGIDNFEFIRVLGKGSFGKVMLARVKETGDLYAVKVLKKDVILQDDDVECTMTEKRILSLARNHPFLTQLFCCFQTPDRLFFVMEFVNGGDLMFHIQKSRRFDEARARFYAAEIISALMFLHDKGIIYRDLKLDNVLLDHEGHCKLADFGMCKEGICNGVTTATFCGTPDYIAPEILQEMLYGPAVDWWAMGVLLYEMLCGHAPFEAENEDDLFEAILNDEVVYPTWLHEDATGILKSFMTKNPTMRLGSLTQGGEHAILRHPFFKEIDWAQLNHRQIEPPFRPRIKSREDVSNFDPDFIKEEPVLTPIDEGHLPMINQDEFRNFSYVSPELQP
T1 sequence (Q04759 whole entry): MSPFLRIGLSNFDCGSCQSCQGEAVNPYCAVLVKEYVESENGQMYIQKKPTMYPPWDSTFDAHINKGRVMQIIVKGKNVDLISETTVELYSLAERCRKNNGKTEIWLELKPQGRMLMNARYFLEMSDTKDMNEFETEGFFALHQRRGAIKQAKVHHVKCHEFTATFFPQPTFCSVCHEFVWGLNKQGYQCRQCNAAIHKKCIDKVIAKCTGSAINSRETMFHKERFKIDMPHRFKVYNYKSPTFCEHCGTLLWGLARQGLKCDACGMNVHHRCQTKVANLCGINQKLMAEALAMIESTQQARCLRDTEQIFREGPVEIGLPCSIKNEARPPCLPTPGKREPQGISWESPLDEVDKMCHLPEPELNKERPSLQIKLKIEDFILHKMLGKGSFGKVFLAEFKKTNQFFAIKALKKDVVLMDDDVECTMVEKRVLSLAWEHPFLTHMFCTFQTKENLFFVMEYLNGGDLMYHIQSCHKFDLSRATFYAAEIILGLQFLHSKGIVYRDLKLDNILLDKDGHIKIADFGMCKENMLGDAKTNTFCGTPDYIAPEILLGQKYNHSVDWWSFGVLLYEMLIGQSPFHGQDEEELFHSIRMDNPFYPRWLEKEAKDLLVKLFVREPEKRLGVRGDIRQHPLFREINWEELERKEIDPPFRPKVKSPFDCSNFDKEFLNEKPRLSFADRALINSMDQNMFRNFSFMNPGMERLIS
T3 sequence (P05771 whole entry): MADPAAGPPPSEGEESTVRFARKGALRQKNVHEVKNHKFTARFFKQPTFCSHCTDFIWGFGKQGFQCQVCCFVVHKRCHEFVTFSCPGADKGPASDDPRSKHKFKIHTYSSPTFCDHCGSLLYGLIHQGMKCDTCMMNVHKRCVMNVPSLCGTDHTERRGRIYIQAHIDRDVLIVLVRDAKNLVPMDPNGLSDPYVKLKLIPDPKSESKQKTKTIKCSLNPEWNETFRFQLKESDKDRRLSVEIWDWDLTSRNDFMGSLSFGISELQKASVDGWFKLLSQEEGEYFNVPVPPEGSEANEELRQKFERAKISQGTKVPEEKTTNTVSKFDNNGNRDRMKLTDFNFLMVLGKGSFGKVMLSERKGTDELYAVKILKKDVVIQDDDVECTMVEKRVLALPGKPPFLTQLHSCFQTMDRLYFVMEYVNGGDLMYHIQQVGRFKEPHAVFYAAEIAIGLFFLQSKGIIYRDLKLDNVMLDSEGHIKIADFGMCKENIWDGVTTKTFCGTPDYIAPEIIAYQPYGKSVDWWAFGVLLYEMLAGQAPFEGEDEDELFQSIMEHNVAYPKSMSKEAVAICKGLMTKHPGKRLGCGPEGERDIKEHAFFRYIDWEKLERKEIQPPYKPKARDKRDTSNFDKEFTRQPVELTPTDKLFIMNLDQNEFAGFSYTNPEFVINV

SMILES: COc1ccc(S(=O)(=O)Nc2ccc(Nc3cc(-c4ccc(OCCCN5CCOCC5)cc4)ncn3)cc2)cc1 [Example 45, 4-Methoxy-N-(4-{6-[4-(3-morpholin-4-yl-propoxy)-phenyl]-pyrimidin-4-ylamino}-phenyl)-benzenesulfonamide]
IC50 (PKCβ1): 2 to 40 µM

SMILES: O=S(=O)(Nc1ccc(Nc2cc(-c3ccccc3)ncn2)cc1)c1c(F)cccc1F [Example 8, 2,6-Difluoro-N-[4-(6-phenyl-pyrimidin-4-ylamino)-phenyl]-benzenesulfonamide]
IC50 (PKCθ): < 1 µM

SMILES: O=S(=O)(Nc1ccc(Nc2cc(-c3ccc(OCCCN4CCOCC4)cc3)ncn2)cc1)c1c(F)cccc1F [Example 38, 2,6-Difluoro-N-(4-{6-[4-(3-morpholin-4-yl-propoxy)-phenyl]-pyrimidin-4-ylamino}-phenyl)-benzenesulfonamide]
IC50 (PKCε): 4 to 21 µM

SMILES: O=S(=O)(Nc1ccc(Nc2cc(-c3cccc4ccccc34)ncn2)cc1)c1c(F)cccc1F [Example 16, 2,6-Difluoro-N-[4-(6-naphthalen-1-yl-pyrimidin-4-ylamino)-phenyl]-benzenesulfonamide]
IC50 (PKCα): 1 to 18 µM

SMILES: COc1ccc(S(=O)(=O)Nc2ccc(Nc3cc(-c4cccc(OCCCN5CCOCC5)c4)ncn3)cc2)cc1 [Example 46, 4-Methoxy-N-(4-{6-[3-(3-morpholin-4-yl-propoxy)-phenyl]-pyrimidin-4-ylamino}-phenyl)-benzenesulfonamide]
IC50 (PKCθ): < 1 µM

SMILES: COc1ccc(-c2cc(Nc3ccc(NS(=O)(=O)c4ccccc4F)cc3)ncn2)cc1 [Example 29, 2-Fluoro-N-{4-[6-(4-methoxy-phenyl)-pyrimidin-4-ylamino]-phenyl}-benzenesulfonamide]
IC50 (PKCβ1): 2 to 40 µM

SMILES: O=S(=O)(Nc1ccc(Nc2cc(-c3ccc4[nH]ccc4c3)ncn2)cc1)c1c(F)cccc1F [Example 119, 2,6-Difluoro-N-{4-[6-(1H-indol-5-yl)-pyrimidin-4-ylamino]-phenyl}-benzenesulfonamide]
IC50 (PKCα): 1 to 18 µM

SMILES: O=S(=O)(Nc1ccc(Nc2cc(-c3ccc(OCCN4CCOCC4)cc3)ncn2)cc1)c1c(F)cccc1F [Example 37, 2,6-Difluoro-N-(4-{6-[4-(2-morpholin-4-yl-ethoxy)-phenyl]-pyrimidin-4-ylamino}-phenyl)-benzenesulfonamide]
IC50 (PKCα): 1 to 18 µM

SMILES: CC1Cc2cc(-c3cc(Nc4ccc(NS(=O)(=O)c5c(F)cccc5F)cc4)ncn3)ccc2O1 (stereo not shown) [Example 115, 2,6-Difluoro-N-{4-[6-(2-methyl-2,3-dihydro-benzofuran-5-yl)-pyrimidin-4-ylamino]-phenyl}-benzenesulfonamide]
IC50 (PKCθ): < 1 µM

SMILES: CC(=O)c1ccc(-c2cc(Nc3ccc(NS(=O)(=O)c4c(F)cccc4F)cc3)ncn2)cc1 [Example 27, N-{4-[6-(4-Acetyl-phenyl)-pyrimidin-4-ylamino]-phenyl}-2,6-difluoro-benzenesulfonamide]
IC50 (PKCε): 4 to 21 µM

The next lines start with the values.

IC50 (PKCθ): < 1 µM
SMILES: O=S(=O)(Nc1ccc(Nc2cc(-c3ccc4c(ccn4CCN4CCCC4)c3)ncn2)cc1)c1ccc(F)c(Cl)c1 [Example 161, 3-Chloro-4-fluoro-N-(4-{6-[1-(2-pyrrolidin-1-yl-ethyl)-1H-indol-5-yl]pyrimidin-4-ylamino}-phenyl)-benzenesulfonamide formic acid salt]

IC50 (PKCα): 1 to 18 µM
SMILES: CN1CCN(CCn2ccc3cc(-c4cc(Nc5ccc(NS(=O)(=O)c6ccc(F)cc6F)cc5)ncn4)ccc32)CC1 [Example 150, 2,4-Difluoro-N-[4-(6-{1-[2-(4-methyl-piperazin-1-yl)-ethyl]-1H-indol-5-yl}-pyrimidin-4-ylamino)-phenyl]-benzenesulfonamide formic acid salt]

IC50 (PKCβ1): 2 to 40 µM
SMILES: CN(C)CCn1ccc2cc(-c3cc(Nc4ccc(NS(=O)(=O)c5c(F)cccc5F)cc4)ncn3)ccc21 [Example 139, N-(4-{6-[1-(2-Dimethylamino-ethyl)-1H-indol-5-yl]-pyrimidin-4-ylamino}-phenyl)-2,6-difluoro-benzenesulfonamide]

IC50 (PKCα): 1 to 18 µM
SMILES: O=S(=O)(Nc1ccc(Nc2cc(-c3ccc4[nH]ccc4c3)ncn2)cc1)c1ccccc1F [Example 120, 2-Fluoro-N-{4-[6-(1H-indol-5-yl)-pyrimidin-4-ylamino]-phenyl}-benzenesulfonamide]

IC50 (PKCε): 4 to 21 µM
SMILES: CN1CCN(CCOc2ccc(-c3cc(Nc4ccc(NS(=O)(=O)c5c(F)cccc5F)cc4)ncn3)cc2)CC1 [Example 47, 2,6-Difluoro-N-[4-(6-{4-[2-(4-methyl-piperazin-1-yl)-ethoxy]-phenyl}-pyrimidin-4-ylamino)-phenyl]-benzenesulfonamide]

IC50 (PKCη): 6 to 50 µM
SMILES: Cc1ccc(S(=O)(=O)Nc2ccc(Nc3cc(-c4ccc(OCCCN5CCN(C)CC5)cc4)ncn3)cc2)cc1 [Example 55, 4-Methyl-N-[4-(6-{4-[3-(4-methyl-piperazin-1-yl)-propoxy]-phenyl}-pyrimidin-4-ylamino)-phenyl]-benzenesulfonamide]

IC50 (PKCβ1): 2 to 40 µM
IC50 (PKCη): 6 to 50 µM
SMILES: COc1ccc(S(=O)(=O)Nc2ccc(Nc3cc(-c4ccc(OCCN5CCN(C)CC5)cc4)ncn3)cc2)cc1 [Example 52, 4-Methoxy-N-[4-(6-{4-[2-(4-methyl-piperazin-1-yl)-ethoxy]-phenyl}-pyrimidin-4-ylamino)-phenyl]-benzenesulfonamide]

IC50 (PKCη): 6 to 50 µM
SMILES: Cc1ccc(S(=O)(=O)Nc2ccc(Nc3cc(-c4ccc5c(ccn5CCCN(C)C)c4)ncn3)cc2)cc1 [Example 135, N-(4-{6-[1-(3-Dimethylamino-propyl)-1H-indol-5-yl]-pyrimidin-4-ylamino}-phenyl)-4-methyl-benzenesulfonamide]
